{"source": "patent US11787783B2", "about": "“Heparanase inhibitors and use thereof” (Beta Therapeutics Pty Ltd, priority 2016, dated 2023)"}
{"target": "T1, heparanase (Homo sapiens, UniProt Q9Y251)", "T1 sequence (Q9Y251 158-543 limits assumed)": "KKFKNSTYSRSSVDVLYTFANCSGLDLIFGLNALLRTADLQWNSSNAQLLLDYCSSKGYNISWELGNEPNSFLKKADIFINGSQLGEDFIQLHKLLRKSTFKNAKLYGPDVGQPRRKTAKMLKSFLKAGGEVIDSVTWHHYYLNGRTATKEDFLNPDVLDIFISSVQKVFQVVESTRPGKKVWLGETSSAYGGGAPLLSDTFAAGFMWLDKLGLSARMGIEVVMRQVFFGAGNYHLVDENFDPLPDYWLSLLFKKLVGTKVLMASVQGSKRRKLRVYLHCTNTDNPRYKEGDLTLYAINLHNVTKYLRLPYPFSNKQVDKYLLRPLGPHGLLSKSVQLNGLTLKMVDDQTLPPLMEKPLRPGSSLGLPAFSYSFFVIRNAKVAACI", "T1 sequence (Q9Y251 36-109 limits assumed)": "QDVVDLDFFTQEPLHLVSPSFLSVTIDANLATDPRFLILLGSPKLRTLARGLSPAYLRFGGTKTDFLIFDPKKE", "test": "Heparanase inhibition (IC50)", "type": "biochemical", "settings": "Heparanase inhibition IC50", "description": "(§1) Heparanase inhibition was determined using standard methods and the results expressed as the half maximal inhibitory concentration (IC50) being the concentration of the compound of the invention required to achieve 50% inhibition of heparanase.", "units": {"IC50": "µM"}}
{"compound": "COc1cc2[nH]c(=S)n(CCn3cc(C(=O)NCCN4CCOCC4)c4ccccc43)c(=N)c2cc1OC", "note": "[BT2104]", "IC50": 44.8}
{"target": "T1, heparanase", "test": "Heparanase inhibition (IC50)", "type": "biochemical", "settings": "read-out: Heparanase inhibition IC50", "description": "as §1", "units": {"IC50": "µM"}}
{"compound": "COc1cc2nc(SCc3ccc(OC(F)(F)F)cc3)n(C3CN(C(=O)c4cc5ccc(-c6cccnc6)cc5[nH]4)C3)c(=N)c2cc1OC", "note": "[BT2142]", "IC50": 7}
{"compound": "COc1cc2[nH]c(=O)n(CCNC(=O)c3cc4cc(C(=O)N5CCOCC5)ccc4[nH]3)c(=N)c2cc1OC", "note": "[BT2081]", "IC50": 90.4}
{"compound": "COc1cc2nc(SCc3ccccc3)n(CCNC(=O)c3cc4ccccc4[nH]3)c(=N)c2cc1OC", "note": "[BT2135]", "IC50": 64}
{"compound": "COc1ccc2[nH]cc(CCn3c(=S)[nH]c4cc(OC)c(OC)cc4c3=N)c2c1", "note": "[BT2046]", "IC50": 9.4}
{"compound": "COc1cc2[nH]c(=S)n(CCNC(=O)c3cccc(-c4ccc5nonc5c4)n3)c(=N)c2cc1OC", "note": "[BT2117]", "IC50": 12.5}
{"compound": "COc1ccc2[nH]c(=S)n(CCc3c[nH]c4ccccc34)c(=N)c2c1", "note": "[BT2014]", "IC50": 49.3}
{"compound": "COc1cc2[nH]c(=S)n(CCNC(=O)c3cccc(-c4ccccc4)n3)c(=N)c2cc1OC", "note": "[BT2115]", "IC50": 19.7}
{"compound": "COc1cc2[nH]c(=S)n(CCNC(=O)c3ccc(-c4ccccc4)nc3)c(=N)c2cc1OC", "note": "[BT2125]", "IC50": 15.6}
{"compound": "COc1cc2[nH]c(=S)n(CCNC(=O)c3cc4cc(C(=O)N5CCOCC5)ccc4[nH]3)c(=N)c2cc1OC", "note": "[BT2082]", "IC50": 35}
{"compound": "COc1cc2[nH]c(=S)n(CCNC(=O)c3nnc(-c4ccccc4)o3)c(=N)c2cc1OC", "note": "[BT2144]", "IC50": 59.9}
{"compound": "COc1ccc(Cn2c(=S)[nH]c3cc(OC)c(OC)cc3c2=N)c(OC)c1", "note": "[BT2027]", "IC50": 40.1}
{"compound": "COc1cc2[nH]c(=O)n(CCNC(=O)c3cc4cc(C(=O)N5CCC5)ccc4[nH]3)c(=N)c2cc1OC", "note": "[BT2080]", "IC50": 90.4}
{"compound": "COc1cc2[nH]c(=S)n(CCNC(=O)c3nnc(-c4ccccc4)o3)c(=N)c2cc1OC", "note": "[BT2132]", "IC50": 58.6}
{"compound": "COc1cc2nc(SCc3ccc(C(F)(F)F)cc3)n(C3CN(C(=O)c4cc5ccc(-c6cccnc6)cc5[nH]4)C3)c(=N)c2cc1OC", "note": "[BT2139]", "IC50": 13}
{"compound": "COc1cc2[nH]c(=S)n(CCNC(=O)c3cc4ccc(-c5ccc(C(=O)N6CCN(C)CC6)cc5)cc4[nH]3)c(=N)c2cc1OC", "note": "[BT2073]", "IC50": 51}
{"compound": "COc1cc2[nH]c(=S)n(CCNC(=O)c3cc4cc(-c5ccc(N6CCN(C)CC6)nc5)ccc4[nH]3)c(=N)c2cc1OC", "note": "[BT2075]", "IC50": 20.6}
{"compound": "COc1cc2[nH]c(=S)n(CCc3cn(C)c4ccccc34)c(=N)c2cc1OC", "note": "[BT2024]", "IC50": 27.4}
{"compound": "COc1cc2nc(SCc3ccc(OC(F)(F)F)cc3)n(C3CN(C(=O)c4cc5ccc(-c6cccnc6)cc5[nH]4)C3)c(=N)c2cc1OC", "note": "[BT2145]", "IC50": 22}
{"compound": "COc1cc2nc(SC)n(C3CN(C(=O)c4cc5ccc(-c6cccnc6)cc5[nH]4)C3)c(=N)c2cc1OC", "note": "[BT2141]", "IC50": 23.6}
{"compound": "COc1cc2[nH]c(=S)n(CCNC(=O)c3cc4cc(-c5cnn(C)c5)ccc4[nH]3)c(=N)c2cc1OC", "note": "[BT2078]", "IC50": 34.8}
{"compound": "COc1cc2nc(SCc3ccc(C(F)(F)F)cc3)n(C3CN(C(=O)c4cc5ccc(-c6cccnc6)cc5[nH]4)C3)c(=N)c2cc1OC", "note": "[BT2140]", "IC50": 37.5}
{"compound": "COc1ccc(OC)c(Cn2c(=S)[nH]c3cc(OC)c(OC)cc3c2=N)c1", "note": "[BT2022]", "IC50": 37.2}
{"compound": "COc1cc2[nH]c(=S)n(CCc3c[nH]c4ccc(-c5cccnc5)cc34)c(=N)c2cc1OC", "note": "[BT2055]", "IC50": 19.1}
{"compound": "COc1cc2[nH]c(=S)n(C3CN(C(=O)c4cc5cc(-c6cccnc6)ccc5[nH]4)C3)c(=N)c2cc1OC", "note": "[BT2085]", "IC50": 1.3}
{"compound": "COc1cc2nc(SC)n(C3CN(C(=O)c4cc5ccc(-c6cccnc6)cc5[nH]4)C3)c(=N)c2cc1OC", "note": "[BT2143]", "IC50": 33}
{"compound": "COc1cc2[nH]c(=S)n(CCc3c[nH]c4ccccc34)c(=N)c2cc1OC", "note": "[BT2044]", "IC50": 30}
{"compound": "COc1cc2[nH]c(=S)n(CCNC(=O)c3cccc(-c4ccc(C(=O)N5CCN(C)CC5)cc4)n3)c(=N)c2cc1OC", "note": "[BT2116]", "IC50": 12.8}
{"compound": "COc1cc2[nH]c(=S)n(CCNC(=O)c3cc4ccc(-c5ccc(N6CCN(C)CC6)nc5)cc4[nH]3)c(=N)c2cc1OC", "note": "[BT2076]", "IC50": 12.4}
{"compound": "COc1cc2[nH]c(=S)n(CCc3c[nH]c4ccccc34)c(=N)c2cc1OC", "note": "[BT2012]", "IC50": 14.8}
{"tested_on": "RIP-OVAhi mice", "test": "Adoptive transfer of Type 1 diabetes in transgenic RIP-OVAhi mice (acute Type 1 diabetes model)", "type": "in vivo, mouse", "settings": "10 mg/kg QD, IP, 14 day assay period", "description": "(§2) FIG. 2. Treatment of RIP-OVA^hi mice from the time of adoptive transfer of OVA-specific OT-1 and activated […] tg T cells with the small molecule heparanase inhibitor BT-2012 (10 mg/kg QD, IP in saline/50% DMSO).\n(§3) FIG. 3. Treatment of RIP-OVA^hi mice from the time of adoptive transfer of OVA-specific OT-1 and activated OT-II tg T cells with a control heparanase inhibitor, (denoted “BT-1055”) (10 mg/kg QD, IP in saline/20% DMSO).\n(§4) In NOD mice, the autoimmune disease process develops slowly because of the asynchronous destruction of the beta cells in different islets. Indeed Type 1 diabetes develops only after >90% of the total islet beta cell mass has been destroyed. The slow course of the disease in NOD mice offers realistic potential for immune intervention but, unfortunately, high throughput screening of test drugs is not feasible. A more acute model of diabetes can be induced experimentally using RIP-OVAhi transgenic mice which express a foreign ovalbumin (OVA) peptide, under the control of the rat insulin promoter (RIP), only in islet beta cells. Following adoptive transfer of naïve OVA specific CD8+ (OT-I) and activated OVA-specific CD4+ (OT-II) transgenic T cells, the transgenic T cells traffic to the host lymph nodes where the OT-I T cells become activated and then to the OVA-expressing pancreatic islets where they rapidly induce islet beta cell destruction and diabetes, all mice succumbing to rapid onset of high blood glucose levels (hyperglycaemia) in the second week after cell transfer. […]\n(§5) Using the RIP-OVAhi transgenic mice the effect of a heparanase inhibitor compound (denoted “BT-1055”) was tested for its effect on blood glucose levels. Following adoptive transfer of naïve OVA specific CD8+ (OT-I) and activated OVA-specific CD4+ (OT-II) transgenic T cells into a number of RIP-OVAhi mice blood glucose was monitored regularly over two weeks in populations of mice treated with BT-1055 and a control group administered saline (FIG. 3).", "units": {"Individual treated mice in which blood glucose remained normal": "%"}}
{"compound": "COc1cc2[nH]c(=S)n(CCc3c[nH]c4ccccc34)c(=N)c2cc1OC", "note": "[BT2012]", "Individual treated mice in which blood glucose remained normal": 50}
{"tested_on": "RIP-OVAhi mice", "test": "Adoptive transfer of Type 1 diabetes in transgenic RIP-OVAhi mice (acute Type 1 diabetes model)", "type": "in vivo, mouse", "settings": "10 mg/kg QD, IP, from the time of adoptive transfer of OT-I and activated OT-II tg T cells", "description": "as §2, §3, §4, §5", "units": {"Incidence of diabetes (blood glucose >12 mmol) reduced": "%"}}
{"compound": "COc1cc2[nH]c(=S)n(CCc3c[nH]c4ccccc34)c(=N)c2cc1OC", "note": "[BT2012]", "Incidence of diabetes (blood glucose >12 mmol) reduced": 50}
{"tested_on": "RIP-OVAhi mice", "test": "Adoptive transfer of Type 1 diabetes in transgenic RIP-OVAhi mice (acute Type 1 diabetes model)", "type": "in vivo, mouse", "settings": "10 mg/kg, by 14 days after transfer", "description": "as §2, §3, §4, §5"}
{"compound": "COc1cc2[nH]c(=S)n(CCc3c[nH]c4ccccc34)c(=N)c2cc1OC", "note": "[BT2012]", "Protection from Type 1 diabetes induction following adoptive transfer of diabetogenic tg T cells": "protected RIPOVAhi mice from Type 1 diabetes induction"}
{"tested_on": "db/db mice", "test": "Insulin content in pancreas sections/islets of db/db mice (Type 2 diabetes model), anti-insulin antibody staining", "type": "in vivo, mouse", "settings": "50 mg/kg daily intraperitoneal injection, versus saline treated db/db and wild-type mice", "description": "FIG. 5. Insulin content in pancreas sections in db/db mice a model of Type 2 diabetes. Mice were treated daily with 50 mg/kg PI-88 IP from 4 weeks of age. Onset of clinical diabetes was determined by measuring urine glucose twice weekly with Multistix reagent strips and confirmed by measuring non-fasting blood glucose levels in tail vein blood using a MediSense glucometer with hyperglycemia defined as 2 consecutive blood glucose readings of 16 mmol/I or greater. Insulin was detected by anti-insulin antibody staining.\nThe db/db mouse has defective leptin signalling resulting from a point mutation in the leptin receptor gene. Plasma insulin levels become elevated very early in life (10-14 days of age), and the affected animals are obese by the time they are 3-4 weeks old. The animals are insulin resistant, hypertriglyceridemic, and have impaired glucose tolerance.\ndb/db mice were treated with saline or 50 mg/kg of PI-88 by daily intraperitoneal injection. At the cessation of treatment pancreatic islets were isolated and stained for insulin and the level of insulin expression assessed by quantitative morphometric analyses."}
{"compound": "PI-88", "Expression of insulin in islets (quantitative morphometric analyses)": "increased compared to the saline treated db/db mice and is near to the level of insulin expression in the wild-type mice"}
{"tested_on": "db/db mice", "test": "Intra-islet heparan sulfate content in db/db mice, Alcian blue staining", "type": "in vivo, mouse", "settings": "50 mg/kg daily intraperitoneal injection, versus saline treated db/db and wild-type mice", "description": "FIG. 6. Intra-islet HS content in pancreas sections in treated db/db mice. Mice were treated daily with 50 mg/kg PI-88 IP from 4 weeks of age. Onset of clinical diabetes was determined by measuring urine glucose twice weekly with Multistix reagent strips and confirmed by measuring non-fasting blood glucose levels in tail vein blood using a MediSense glucometer with hyperglycemia defined as 2 consecutive blood glucose readings of 16 mmol/I or greater. Islet HS was detected by Alcian blue staining.\ndb/db mice were treated with saline or 50 mg/kg of PI-88 daily by intraperitoneal injection. At the cessation of treatment pancreatic islets were isolated and stained with alcian blue to visualise heparan sulfate and the heparan sulfate content of the islets was assessed by quantitative morphometric analyses."}
{"compound": "PI-88", "Islet heparan sulfate levels (quantitative morphometric analyses)": "increased compared to the saline treated db/db mice and are near to the levels of heparan sulfate in the islets of wild-type mice"}
